Assay results as given in the NIST ThermoML archive (doi:10.1016/j.fluid.2014.10.004).

Assays:
[1] = refractive index (Na D-line) (dimensionless); xn = mol fraction of the nth substance listed; conditions: 101.3 kPa, Liquid, Standard Abbe refractometry
[2] = xn = mol fraction of the nth substance listed; conditions: 101.3 kPa, Liquid, Sing-around technique in a fixed-path interferometer

ClCCCCCl [1,4-dichlorobutane] + C[N+](=O)[O-]
Conditions	refractive index, 298.15 K	refractive index, 308.15 K	refractive index, 318.15 K	speed of sound, 298.15 K [m/s]	speed of sound, 308.15 K [m/s]	speed of sound, 318.15 K [m/s]
[1], x1 = 0.0825	1.38965	1.38514	1.38078	–	–	–
[1], x1 = 0.1759	1.39985	1.39614	1.39174	–	–	–
[1], x1 = 0.2825	1.40987	1.40646	1.40219	–	–	–
[1], x1 = 0.3815	1.41799	1.41451	1.41005	–	–	–
[1], x1 = 0.4815	1.42515	1.42129	1.41679	–	–	–
[1], x1 = 0.5911	1.43204	1.4279	1.42357	–	–	–
[1], x1 = 0.6898	1.43765	1.43335	1.42901	–	–	–
[1], x1 = 0.8208	1.4443	1.43965	1.43512	–	–	–
[1], x1 = 0.9262	1.44906	1.44436	1.43974	–	–	–
[1], x1 = 1	1.45224	1.44756	1.44279	–	–	–
[2], x1 = 0.0825	–	–	–	1308.1	1269.3	1230.6
[2], x1 = 0.1759	–	–	–	1298.3	1260	1221.8
[2], x1 = 0.2825	–	–	–	1291.3	1253.5	1215.8
[2], x1 = 0.3815	–	–	–	1287.2	1249.9	1212.7
[2], x1 = 0.4815	–	–	–	1285	1248	1211.2
[2], x1 = 0.5911	–	–	–	1284	1247.3	1210.8
[2], x1 = 0.6898	–	–	–	1283.9	1247.5	1211.3
[2], x1 = 0.8208	–	–	–	1284.6	1248.6	1212.8
[2], x1 = 0.9262	–	–	–	1285.7	1249.9	1214.4
[2], x1 = 1	–	–	–	1286.6	1251	1215.7

CCCCCl [1-chlorobutane] + C[N+](=O)[O-]
x1 = 1
Conditions	refractive index, 298.15 K	refractive index, 308.15 K	refractive index, 318.15 K	speed of sound, 298.15 K [m/s]	speed of sound, 308.15 K [m/s]	speed of sound, 318.15 K [m/s]
[1]	1.39953	1.39413	1.38851	–	–	–
[2]	–	–	–	1119	1078	1037.3

CCCCCCl [1-chloropentane] + C[N+](=O)[O-]
Conditions	refractive index, 298.15 K	refractive index, 308.15 K	refractive index, 318.15 K	speed of sound, 298.15 K [m/s]	speed of sound, 308.15 K [m/s]	speed of sound, 318.15 K [m/s]
[1], x1 = 0.1044	1.38453	1.37934	1.37439	–	–	–
[1], x1 = 0.1721	1.38722	1.3821	1.377	–	–	–
[1], x1 = 0.2575	1.39056	1.38539	1.38037	–	–	–
[1], x1 = 0.3466	1.39367	1.38858	1.38354	–	–	–
[1], x1 = 0.4525	1.39687	1.39181	1.38674	–	–	–
[1], x1 = 0.5435	1.39934	1.39422	1.38916	–	–	–
[1], x1 = 0.6864	1.40308	1.39792	1.39268	–	–	–
[1], x1 = 0.8325	1.40646	1.4012	1.396	–	–	–
[1], x1 = 0.8859	1.4076	1.40244	1.3972	–	–	–
[1], x1 = 1	1.41015	1.40501	1.39984	–	–	–
[2], x1 = 0.1043	–	–	–	1276	1237	1197.9
[2], x1 = 0.1721	–	–	–	1253.5	1214.4	1175.3
[2], x1 = 0.2575	–	–	–	1231.2	1192.3	1153.4
[2], x1 = 0.3466	–	–	–	1213.7	1174.8	1135.8
[2], x1 = 0.4525	–	–	–	1198.2	1159.2	1120.1
[2], x1 = 0.5435	–	–	–	1188.6	1149.2	1110.1
[2], x1 = 0.6864	–	–	–	1177.1	1137.8	1098.5
[2], x1 = 0.8325	–	–	–	1169.4	1130.1	1090.8
[2], x1 = 0.8859	–	–	–	1167.6	1128.1	1088.9
[2], x1 = 1	–	–	–	1164.2	1124.9	1085.8

C[N+](=O)[O-] [nitromethane] + CC(Cl)(Cl)Cl
x2 = 0
Conditions	refractive index, 298.15 K	refractive index, 308.15 K	refractive index, 318.15 K	speed of sound, 298.15 K [m/s]	speed of sound, 308.15 K [m/s]	speed of sound, 318.15 K [m/s]
[1]	1.37949	1.37473	1.36995	–	–	–
[2]	–	–	–	1321.6	1281.9	1242.5

C[N+](=O)[O-] [nitromethane] + CCCCCCl
x2 = 0
Conditions	refractive index, 298.15 K	refractive index, 308.15 K	refractive index, 318.15 K	speed of sound, 298.15 K [m/s]	speed of sound, 308.15 K [m/s]	speed of sound, 318.15 K [m/s]
[1]	1.37954	1.3747	1.36996	–	–	–
[2]	–	–	–	1321.7	1282	1242.6
